PMC5374441 (Scientific Reports, 2017)
Bridge positions count the residues as written; N and C are the ends. Peptide text beside a SMILES is read from it.

Assays:
Ls-AChBP = molecular target: T1, Ls-AChBP (Lymnaea stagnalis, UniProt P58154); experiment: biochemical; assay type: binding; conditions: SEM
T1 construct: made in house

Ac-AChBP = molecular target: T2, Ac-AChBP (Aplysia californica, UniProt Q8WSF8); experiment: biochemical; assay type: binding; conditions: SEM
T2 construct: made in house

human α7 nAChR = human α7 nAChR (Homo sapiens, UniProt P36544); experiment: cell-based; conditions: SEM
human α3β4 nAChR = human α3β4 nAChR (Homo sapiens, UniProt P30926+P32297); experiment: cell-based
Chain of human α3β4 nAChR (P32297 32-505 limits assumed): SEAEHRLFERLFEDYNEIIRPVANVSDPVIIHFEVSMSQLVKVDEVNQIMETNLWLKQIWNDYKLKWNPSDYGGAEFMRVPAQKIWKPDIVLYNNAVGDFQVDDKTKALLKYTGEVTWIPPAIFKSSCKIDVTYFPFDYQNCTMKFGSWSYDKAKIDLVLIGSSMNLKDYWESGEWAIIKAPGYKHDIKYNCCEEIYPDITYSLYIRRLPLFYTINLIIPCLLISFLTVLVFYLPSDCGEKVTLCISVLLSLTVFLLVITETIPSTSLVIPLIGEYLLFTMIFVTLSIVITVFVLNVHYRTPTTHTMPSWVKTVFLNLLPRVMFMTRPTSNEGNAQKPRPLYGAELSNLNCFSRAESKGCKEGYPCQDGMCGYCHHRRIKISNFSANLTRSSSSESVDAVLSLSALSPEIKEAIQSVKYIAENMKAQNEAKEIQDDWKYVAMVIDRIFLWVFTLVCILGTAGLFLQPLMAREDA
Chain of human α3β4 nAChR (P30926 22-498 limits assumed): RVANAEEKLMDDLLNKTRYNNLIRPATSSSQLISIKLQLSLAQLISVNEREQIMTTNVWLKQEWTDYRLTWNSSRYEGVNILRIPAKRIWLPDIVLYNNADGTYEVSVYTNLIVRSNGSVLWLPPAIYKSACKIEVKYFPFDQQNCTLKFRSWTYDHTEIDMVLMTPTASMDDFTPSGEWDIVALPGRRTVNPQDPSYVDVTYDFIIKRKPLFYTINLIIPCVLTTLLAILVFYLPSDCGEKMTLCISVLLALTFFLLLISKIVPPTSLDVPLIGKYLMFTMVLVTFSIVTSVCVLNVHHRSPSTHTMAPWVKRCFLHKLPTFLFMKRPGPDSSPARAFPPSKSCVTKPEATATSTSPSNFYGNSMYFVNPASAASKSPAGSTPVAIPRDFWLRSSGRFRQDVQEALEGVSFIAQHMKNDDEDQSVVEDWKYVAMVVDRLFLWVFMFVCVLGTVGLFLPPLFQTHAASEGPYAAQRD

Chain of human α7 nAChR (P36544 23-502 limits assumed): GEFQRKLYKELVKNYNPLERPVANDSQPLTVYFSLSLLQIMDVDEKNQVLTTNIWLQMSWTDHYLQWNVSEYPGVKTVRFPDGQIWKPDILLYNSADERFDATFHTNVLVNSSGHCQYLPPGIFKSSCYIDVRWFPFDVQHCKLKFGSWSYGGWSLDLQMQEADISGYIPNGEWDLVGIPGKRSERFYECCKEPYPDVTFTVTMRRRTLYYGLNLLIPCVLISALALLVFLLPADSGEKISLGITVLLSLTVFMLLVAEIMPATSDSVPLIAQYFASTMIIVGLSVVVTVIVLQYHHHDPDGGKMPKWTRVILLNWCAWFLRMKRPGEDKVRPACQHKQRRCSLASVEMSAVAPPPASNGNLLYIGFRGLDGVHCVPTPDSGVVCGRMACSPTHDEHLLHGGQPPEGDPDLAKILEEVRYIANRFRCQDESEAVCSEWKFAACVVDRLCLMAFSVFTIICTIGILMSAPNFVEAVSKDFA
T2 sequence (Q8WSF8 18-236 limits assumed): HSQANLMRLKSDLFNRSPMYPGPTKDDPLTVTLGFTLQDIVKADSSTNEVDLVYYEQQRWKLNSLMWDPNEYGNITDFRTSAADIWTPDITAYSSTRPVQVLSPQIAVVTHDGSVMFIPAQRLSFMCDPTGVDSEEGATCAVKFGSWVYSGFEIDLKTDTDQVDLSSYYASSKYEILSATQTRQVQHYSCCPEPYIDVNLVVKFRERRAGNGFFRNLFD
T1 sequence (P58154 20-229 limits assumed): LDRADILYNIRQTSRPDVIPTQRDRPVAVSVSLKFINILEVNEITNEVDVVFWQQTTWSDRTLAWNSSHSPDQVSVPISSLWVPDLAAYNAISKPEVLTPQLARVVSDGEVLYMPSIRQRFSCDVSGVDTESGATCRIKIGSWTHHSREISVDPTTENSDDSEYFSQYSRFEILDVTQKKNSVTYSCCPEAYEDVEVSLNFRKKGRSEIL

Q: What does the source list for `CC[C@H](C)[C@@H]1NC(=O)[C@H](CC(N)=O)NC(=O)[C@@H]2CCCN2C(=O)[C@H](CC(N)=O)NC(=O)[C@H](CC(N)=O)NC(=O)[C@H](C(C)C)NC(=O)[C@H](CCCNC(=N)N)NC(=O)[C@@H]2CSSC[C@H](NC(=O)CNC(=O)[C@@H](N)CO)C(=O)N[C@@H](CSSC[C@@H](C(N)=O)NC1=O)C(=O)N[C@@H](CO)C(=O)N[C@@H](CC(N)=O)C(=O)N1CCC[C@H]1C(=O)N[C@@H](C)C(=O)N2` [LsIA] (H-SGCCSNPACRVNNPNIC-NH2; disulfide 3-9, 4-17)?
A: IC50 (Ls-AChBP): 210 ± 40 nM; IC50 (Ac-AChBP): 5.44 ± 0.35 nM; IC50 (human α7 nAChR): 70 ± 7 nM; IC50 (human α3β4 nAChR): > 10000 nM
